These results are taken from ChEMBL document CHEMBL5357082, “Identification and Optimization of Small Molecule Pyrazolopyrimidine TLR7 Agonists for Applications in Immuno-oncology” (ACS Med Chem Lett, 2024).

A short description of data set [1]: Clearance in nontumor bearing Balb/C mouse at 0.5 mg/kg. In kind it is ADME, organism-based. The conditions noted are these: in vivo.
The nature of data set [2]: Half life in nontumor bearing Balb/C mouse at 0.5 mg/kg. It is filed as ADME, organism-based. The conditions noted are these: in vivo.
Data set [3] is described as follows: Metabolic stability in mouse liver microsomes assessed as compound remaining at 0.5 uM incubated for 10 mins in presence of NADPH by UV absorbance based assay. It is filed as ADME, Microsome. The conditions noted are these: read-out: Stability.
Data set [4] is described as follows: AUClast in nontumor bearing Balb/C mouse at 0.5 mg/kg. It is filed as ADME, organism-based. More on the design: dose 0.5 mg/kg. The conditions noted are these: in vivo.
In data set [5] the target is T1, Toll-like receptor 8 (Homo sapiens, UniProt Q9NR97).
T1 sequence (Q9NR97 whole entry): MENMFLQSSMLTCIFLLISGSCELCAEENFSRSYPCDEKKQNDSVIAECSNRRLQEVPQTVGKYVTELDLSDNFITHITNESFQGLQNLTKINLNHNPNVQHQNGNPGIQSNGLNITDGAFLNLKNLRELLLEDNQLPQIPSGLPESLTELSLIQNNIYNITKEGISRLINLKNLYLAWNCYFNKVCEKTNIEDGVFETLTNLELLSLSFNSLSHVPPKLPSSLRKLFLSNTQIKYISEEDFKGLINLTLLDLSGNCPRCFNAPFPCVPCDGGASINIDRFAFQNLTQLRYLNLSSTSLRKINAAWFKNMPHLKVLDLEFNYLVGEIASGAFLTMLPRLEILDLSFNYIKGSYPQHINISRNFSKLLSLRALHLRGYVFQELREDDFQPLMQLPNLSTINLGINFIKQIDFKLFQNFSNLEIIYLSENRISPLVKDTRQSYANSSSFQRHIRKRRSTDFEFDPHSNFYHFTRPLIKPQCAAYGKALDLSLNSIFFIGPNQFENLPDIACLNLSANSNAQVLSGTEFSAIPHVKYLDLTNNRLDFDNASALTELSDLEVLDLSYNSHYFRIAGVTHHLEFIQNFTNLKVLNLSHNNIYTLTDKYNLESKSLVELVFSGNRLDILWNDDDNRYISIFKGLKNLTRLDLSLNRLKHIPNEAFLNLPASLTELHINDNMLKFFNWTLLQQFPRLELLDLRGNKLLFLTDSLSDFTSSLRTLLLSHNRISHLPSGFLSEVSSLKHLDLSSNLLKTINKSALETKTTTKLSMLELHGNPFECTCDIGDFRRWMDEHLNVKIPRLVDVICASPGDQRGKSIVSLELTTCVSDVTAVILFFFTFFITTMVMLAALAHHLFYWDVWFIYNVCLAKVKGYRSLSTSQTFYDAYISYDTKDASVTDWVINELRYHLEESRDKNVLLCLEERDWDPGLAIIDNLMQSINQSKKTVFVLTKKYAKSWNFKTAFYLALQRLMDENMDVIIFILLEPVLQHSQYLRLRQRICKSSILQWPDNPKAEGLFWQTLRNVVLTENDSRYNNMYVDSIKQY
In words: Agonist activity at human TLR8.

Data set [6] in a line: Metabolic stability in human liver microsomes assessed as compound remaining at 0.5 uM incubated for 10 mins in presence of NADPH by UV absorbance based assay. In kind it is ADME, Microsome. The settings on record: read-out: Stability. A general note: Liver microsomes are vesicles of endoplasmic reticulum, rich in cytochrome P450 enzymes.
Data set [7] can be described thus: Drug concentration in nontumor bearing Balb/C mouse at 0.5 mg/kg measured after 5 mins. In kind it is ADME, organism-based. The conditions noted are these: in vivo, read-out: Drug uptake.

Consider `CCC[C@@H](CCO)Nc1nc(N)nc2cnn(Cc3ccc(CNC4CCOCC4)cc3OC)c12`, for which, in data set [1], the clearance (as a rule, the rate of elimination divided by the concentration) was 149 mL/min/kg. The half-life (usually the time needed for the level to fall by half in the phase considered) in data set [2] was 5.6 h. Also, the remaining at 10 min, 0.5 µM in data set [3] is 81%; in data set [6] it was 75%. Further, the exposure AUC(0-t) (usually exposure summed from dosing to a finite time, without extrapolation to infinity) in data set [4] was 0.111 µM·h. Further, the EC50 (as a rule, the concentration needed to bring the measured effect to its halfway point) in data set [5] is more than 5 µM. Moreover, the concentration at 5 min in data set [7] came out at 66 nM.
